In assay [1] the target is T1, FGFR4 (Homo sapiens, UniProt P22455).
T1 construct: made in house; host or cells: E. coli (BL21-derived) infected with T7 phage
Put plainly: Kinase binding assay (Kd), kinase-tagged T7 phage, affinity beads, qPCR. The conditions noted are these: in vitro binding assay, 11-point 3-fold dilution series. The method, then: (§1) Kinase-tagged T7 phage strains were prepared in an E. coli host derived from the BL21 strain. E. coli were grown to log-phase and infected with T7 phage and incubated with shaking at 32° C. until lysis. The lysates were centrifuged and filtered to remove cell debris. Streptavidin-coated magnetic beads were treated with biotinylated small molecule ligands for 30 minutes at room temperature to generate affinity resins for kinase assays. The liganded beads were blocked with excess biotin and washed with blocking buffer SeaBlock (Pierce), 1% BSA, 0.05% Tween 20, 1 mM DTT to remove unbound ligand and to reduce non-specific binding. Binding reactions were assembled by combining kinases, liganded affinity beads, and test compounds in 1× binding buffer (20% SeaBlock, 0.17×PBS, 0.05% Tween 20, 6 mM DTT).
(§2) Test compounds were prepared as 111× stocks in 100% DMSO. Kds were determined using an 11-point 3-fold compound dilution series with three DMSO control points. All compounds for Kd measurements are distributed by acoustic transfer (non-contact dispensing) in 100% DMSO. The compounds were then diluted directly into the assays such that the final concentration of DMSO was 0.9%. All reactions performed in polypropylene 384-well plate. Each was a final volume of 0.02 ml. The assay plates were incubated at room temperature with shaking for 1 hour and the affinity beads were washed with wash buffer (1×PBS, 0.05% Tween 20). The beads were then re-suspended in elution buffer (1×PBS, 0.05% Tween 20, 0.5 μM non-biotinylated affinity ligand) and incubated at room temperature with shaking for 30 minutes. The kinase concentration in the eluates was measured by qPCR.
(§3) Binding constants were calculated with a standard dose-response curve using the Hill equation: […]
(§4) The Hill Slope was set to −1. Curves were fitted using a non-linear least square fit with the Levenberg-Marquardt algorithm.
In general terms: Real-time PCR tracks product formation cycle by cycle.

Assay [2] addresses T2, FGFR1 (Homo sapiens, UniProt P11362).
T2 construct: made in house; host or cells: E. coli (BL21-derived) infected with T7 phage
The description is as above. The conditions noted are these: in vitro binding assay, 11-point 3-fold dilution series. The method, then: as §1, §2, §3, §4

The target in assay [3] is T3, FGFR3 (V555M) (Homo sapiens, UniProt P22607, V555M).
T3 construct: made in house; host or cells: E. coli (BL21-derived) infected with T7 phage
T3 sequence (P22607 23-806 V555M): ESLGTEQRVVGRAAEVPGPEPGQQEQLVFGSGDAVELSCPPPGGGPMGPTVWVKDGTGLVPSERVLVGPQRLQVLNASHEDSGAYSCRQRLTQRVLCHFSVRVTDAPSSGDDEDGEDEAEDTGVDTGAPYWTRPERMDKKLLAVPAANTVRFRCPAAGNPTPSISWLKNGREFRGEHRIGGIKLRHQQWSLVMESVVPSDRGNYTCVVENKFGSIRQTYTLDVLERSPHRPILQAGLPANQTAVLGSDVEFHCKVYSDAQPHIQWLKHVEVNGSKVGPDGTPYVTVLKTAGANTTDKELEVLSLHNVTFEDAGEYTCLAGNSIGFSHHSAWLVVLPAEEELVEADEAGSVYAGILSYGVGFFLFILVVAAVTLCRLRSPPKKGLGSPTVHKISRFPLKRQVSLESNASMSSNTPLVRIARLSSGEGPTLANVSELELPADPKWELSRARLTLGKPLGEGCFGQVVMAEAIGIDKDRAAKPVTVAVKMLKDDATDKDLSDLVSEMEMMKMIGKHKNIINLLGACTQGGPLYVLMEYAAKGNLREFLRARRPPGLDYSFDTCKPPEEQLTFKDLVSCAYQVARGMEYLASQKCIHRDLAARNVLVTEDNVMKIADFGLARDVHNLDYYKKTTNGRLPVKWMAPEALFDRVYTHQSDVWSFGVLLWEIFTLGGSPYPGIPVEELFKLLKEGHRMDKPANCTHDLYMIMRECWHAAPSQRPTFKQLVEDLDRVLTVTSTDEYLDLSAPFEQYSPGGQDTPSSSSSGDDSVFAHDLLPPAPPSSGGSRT
The description is as above. The conditions noted are these: in vitro binding assay, 11-point 3-fold dilution series. The method, then: as §1, §2, §3, §4

Assay [4] has as its target T4, FGFR2 (Homo sapiens, UniProt P21802).
T4 construct: made in house; host or cells: E. coli (BL21-derived) infected with T7 phage
The assay is described as above. The conditions noted are these: in vitro binding assay, 11-point 3-fold dilution series. The method, then:
as §1, §2, §3, §4

For assay [5], the target named is T5, FGFR3 (Homo sapiens, UniProt P22607).
T5 construct: made in house; host or cells: E. coli (BL21-derived) infected with T7 phage
T5 sequence (P22607 23-806): as the sequence (P22607 23-806 V555M) above, with M533V counted along it
The description is as above. The conditions noted are these: in vitro binding assay, 11-point 3-fold dilution series. As to the method:
as §1, §2, §3, §4

For assay [6], the target named is T6, Ba/F3 FGFR3-BAIAP2L1 (Homo sapiens, UniProt P22607).
T6 construct: BAIAP2L1 (fusion partner, Q9UHR4 if human); host or cells: Ba/F3; the other entry of the earlier key: BAIAP2L1 (Q9UHR4, BAR/IMD domain-containing adapter protein 2-like 1)
T6 sequence (P22607 397-758 limits assumed): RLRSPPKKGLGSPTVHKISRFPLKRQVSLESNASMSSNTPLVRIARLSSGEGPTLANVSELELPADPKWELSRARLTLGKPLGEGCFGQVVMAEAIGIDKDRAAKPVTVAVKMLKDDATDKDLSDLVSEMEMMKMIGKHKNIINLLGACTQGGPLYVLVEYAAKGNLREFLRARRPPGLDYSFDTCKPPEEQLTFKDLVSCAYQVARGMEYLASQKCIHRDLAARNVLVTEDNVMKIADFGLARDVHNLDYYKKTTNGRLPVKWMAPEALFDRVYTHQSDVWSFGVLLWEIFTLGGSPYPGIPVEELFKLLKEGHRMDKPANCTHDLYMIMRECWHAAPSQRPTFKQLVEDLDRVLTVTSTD
As to the kind of experiment: Ba/F3 cell viability assay (CellTiter-Glo 2.0). The conditions noted are these: Ba/F3 cell data, FGFR3-BAIAP2L1 fusion, 48 hours. Type of assay: cell-based. On the technique in general: In ATP-based viability assays light output follows the ATP content of the culture.

The target in assay [7] is T7, Ba/F3 ETV5-FGFR4 (Homo sapiens, UniProt P22455).
T7 construct: host or cells: Ba/F3; the other entry of the earlier key: ETV5 (P41161, ETS translocation variant 5)
T7 sequence (P22455 467-755 limits assumed): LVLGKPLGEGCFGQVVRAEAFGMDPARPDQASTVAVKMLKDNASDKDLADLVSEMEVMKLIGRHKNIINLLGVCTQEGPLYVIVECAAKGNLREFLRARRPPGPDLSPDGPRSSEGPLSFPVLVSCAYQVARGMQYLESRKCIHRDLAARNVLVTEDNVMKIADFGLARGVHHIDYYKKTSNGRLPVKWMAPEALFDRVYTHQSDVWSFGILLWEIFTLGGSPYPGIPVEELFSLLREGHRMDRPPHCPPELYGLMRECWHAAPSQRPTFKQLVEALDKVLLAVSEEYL
As to the kind of experiment: Ba/F3 cell viability assay (CellTiter-Glo 2.0). The assay is classed as cell-based. The conditions noted are these: Ba/F3 cell data, ETV5-FGFR4 fusion, 48 hours. An excerpt: Experimental Purpose: Recombinant kinase fusions are transduced into parental Ba/F3, which becomes dependent upon this constitutive kinase activity for IL3-independent survival. Inhibition of kinase activity leads to cell death, which is monitored using CellTiter-Glo® 2.0 (Promega) which measures intracellular ATP concentration that in turn serves as a marker for viability. BCR-FGFR1 Ba/F3, BCR-FGFR2 and FGFR3-BAIAP2L1 Ba/F3 were obtained from Advanced Cellular Dynamics (Seattle, WA). ETV6-FGFR4 was obtained from Kyinno (Waltham, MA).
Cell Viability Assay Procedure: Cell Titer-Glo® 2.0 Luminescent cell viability assay reagent was purchased from Promega (Madison, WI). Ba/F3 cell lines were cultured in RPMI1640 media supplemented with 10% fetal bovine serum. Cultures were maintained at 37° C. in a humidified atmosphere of 5% CO2 and 95% air.
Cells were plated in 96-well clear bottom/white plates (Corning #3903) at 10,000 cells/well in 100 μl of media, incubated overnight. The next day, test compound DMSO stock solutions were made at 10 mM and 2 μM final concentration. Compounds were then added to cells in a 9-dose, 10-fold dilution series starting at 30 μM with an HP 300e Digital Dispenser (each dose was applied in triplicate). DMSO was backfilled to each well up to 301 nL total volume of test compound+DMSO, and a total of 301 nL DMSO was added to a control/no test compound well in triplicate. The cells in cell culture plates were incubated with the compounds at 37° C. and 5% CO2 for 48 hours. Then 50 μl of Cell Titer Glo 2.0 reagent was added to each well of the cell culture plates. The contents were covered from light and mixed on an orbital shaker at room temperature for 10 min. Luminescence was recorded by a Synergy H1 Microplate Reader (Biotek, Winooski, VT). Cells were assessed as a percentage of DMSO only treated control cells. Curves were plotted and IC50 values were calculated using the GraphPad Prism 8 program based on a sigmoidal dose-response equation (4 parameter).

The target in assay [8] is T8, Ba/F3 BCR-FGFR2 (Homo sapiens, UniProt P21802).
T8 construct: BCR (fusion partner); host or cells: Ba/F3; the other entry of the earlier key: BCR (P11274, Breakpoint cluster region protein)
T8 sequence (P21802 481-770 limits assumed): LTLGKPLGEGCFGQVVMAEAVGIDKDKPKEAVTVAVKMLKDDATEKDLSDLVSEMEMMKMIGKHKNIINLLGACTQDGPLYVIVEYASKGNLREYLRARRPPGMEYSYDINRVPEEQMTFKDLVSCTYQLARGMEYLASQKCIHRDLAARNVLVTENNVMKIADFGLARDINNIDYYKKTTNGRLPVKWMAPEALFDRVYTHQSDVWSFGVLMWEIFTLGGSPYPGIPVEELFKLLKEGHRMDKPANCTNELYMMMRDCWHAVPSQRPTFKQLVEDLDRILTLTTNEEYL
Put plainly: Ba/F3 cell viability assay (CellTiter-Glo 2.0). The assay is classed as cell-based. The conditions noted are these: Ba/F3 cell data, BCR-FGFR2 fusion, 48 hours.

Assay [9] addresses T9, Ba/F3 BCR-FGFR1 (Homo sapiens, UniProt P11362).
T9 construct: BCR (fusion partner); host or cells: Ba/F3; the other entry of the earlier key: BCR (P11274, Breakpoint cluster region protein)
Put plainly: Ba/F3 cell viability assay (CellTiter-Glo 2.0). The conditions noted are these: Ba/F3 cell data, BCR-FGFR1 fusion, 48 hours. The assay is classed as cell-based.

The source of these data is patent US20260209223A1, “FGFR3 INHIBITOR COMPOUNDS” (TYRA BIOSCIENCES, INC., priority 2022, published 2026).

For orientation: Kd means the concentration at which binding is half-saturated.

T4 sequence (P21802 22-821): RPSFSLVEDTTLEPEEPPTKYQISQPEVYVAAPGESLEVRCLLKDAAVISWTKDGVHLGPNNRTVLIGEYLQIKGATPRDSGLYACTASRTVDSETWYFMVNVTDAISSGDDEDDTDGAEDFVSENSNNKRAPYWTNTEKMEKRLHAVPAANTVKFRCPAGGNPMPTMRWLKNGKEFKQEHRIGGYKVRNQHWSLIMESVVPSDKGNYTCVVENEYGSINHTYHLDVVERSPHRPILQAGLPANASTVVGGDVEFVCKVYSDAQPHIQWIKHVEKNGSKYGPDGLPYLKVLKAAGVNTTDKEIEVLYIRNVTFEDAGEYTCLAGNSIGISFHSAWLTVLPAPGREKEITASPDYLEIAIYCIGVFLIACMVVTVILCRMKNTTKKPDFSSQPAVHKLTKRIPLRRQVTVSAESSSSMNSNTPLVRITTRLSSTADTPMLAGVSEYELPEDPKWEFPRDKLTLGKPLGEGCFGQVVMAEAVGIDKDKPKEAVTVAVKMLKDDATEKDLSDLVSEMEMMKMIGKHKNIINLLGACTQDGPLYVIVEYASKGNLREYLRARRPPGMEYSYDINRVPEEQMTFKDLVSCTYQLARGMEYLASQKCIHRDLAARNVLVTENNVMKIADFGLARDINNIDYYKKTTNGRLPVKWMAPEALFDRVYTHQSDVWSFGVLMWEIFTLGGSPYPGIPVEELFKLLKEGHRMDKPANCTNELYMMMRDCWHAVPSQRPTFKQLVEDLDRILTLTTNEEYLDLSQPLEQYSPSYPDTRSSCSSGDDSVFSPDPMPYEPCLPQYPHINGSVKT
T1 sequence (P22455 22-802): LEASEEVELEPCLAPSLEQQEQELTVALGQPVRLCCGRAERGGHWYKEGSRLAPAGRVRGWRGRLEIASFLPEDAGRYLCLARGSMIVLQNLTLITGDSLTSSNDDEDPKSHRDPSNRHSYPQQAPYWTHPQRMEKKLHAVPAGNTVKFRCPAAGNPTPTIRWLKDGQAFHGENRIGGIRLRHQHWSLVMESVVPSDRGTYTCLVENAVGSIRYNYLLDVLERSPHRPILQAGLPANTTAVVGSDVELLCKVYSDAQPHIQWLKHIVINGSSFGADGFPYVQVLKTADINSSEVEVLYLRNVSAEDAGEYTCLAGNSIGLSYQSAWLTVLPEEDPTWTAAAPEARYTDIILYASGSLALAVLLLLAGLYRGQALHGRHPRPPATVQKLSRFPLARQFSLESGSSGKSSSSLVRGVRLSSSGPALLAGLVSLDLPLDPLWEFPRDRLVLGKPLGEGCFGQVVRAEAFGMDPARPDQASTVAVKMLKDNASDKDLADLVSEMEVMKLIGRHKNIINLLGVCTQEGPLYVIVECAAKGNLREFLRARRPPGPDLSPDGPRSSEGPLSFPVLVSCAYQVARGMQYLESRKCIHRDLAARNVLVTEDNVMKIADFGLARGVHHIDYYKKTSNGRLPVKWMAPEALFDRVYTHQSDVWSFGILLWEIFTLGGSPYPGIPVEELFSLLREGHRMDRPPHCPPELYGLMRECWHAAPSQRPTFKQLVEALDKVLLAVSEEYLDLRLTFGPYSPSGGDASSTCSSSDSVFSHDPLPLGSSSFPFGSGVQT
T2 sequence (P11362 22-822): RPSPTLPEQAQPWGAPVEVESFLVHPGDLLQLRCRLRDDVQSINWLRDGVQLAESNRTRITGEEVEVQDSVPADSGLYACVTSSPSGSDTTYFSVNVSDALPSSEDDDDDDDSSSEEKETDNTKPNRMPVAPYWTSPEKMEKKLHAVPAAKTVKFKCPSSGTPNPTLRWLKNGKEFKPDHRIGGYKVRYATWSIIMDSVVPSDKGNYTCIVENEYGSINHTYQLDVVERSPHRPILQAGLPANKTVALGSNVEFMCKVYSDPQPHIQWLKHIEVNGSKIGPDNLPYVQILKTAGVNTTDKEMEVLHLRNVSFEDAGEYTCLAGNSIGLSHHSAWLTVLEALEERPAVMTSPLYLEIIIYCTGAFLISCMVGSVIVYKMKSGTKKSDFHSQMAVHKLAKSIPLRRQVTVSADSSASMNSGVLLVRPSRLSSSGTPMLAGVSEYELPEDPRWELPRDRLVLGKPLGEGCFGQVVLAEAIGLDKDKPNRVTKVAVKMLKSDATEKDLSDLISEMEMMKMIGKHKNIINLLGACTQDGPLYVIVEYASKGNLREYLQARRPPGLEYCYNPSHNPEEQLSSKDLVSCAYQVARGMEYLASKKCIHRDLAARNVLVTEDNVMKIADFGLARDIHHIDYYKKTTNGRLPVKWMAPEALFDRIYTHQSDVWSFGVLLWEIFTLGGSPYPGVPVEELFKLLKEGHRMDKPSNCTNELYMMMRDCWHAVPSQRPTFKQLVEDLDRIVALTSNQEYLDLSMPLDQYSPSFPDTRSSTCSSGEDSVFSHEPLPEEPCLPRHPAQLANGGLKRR
T9 sequence (P11362 478-767 limits assumed): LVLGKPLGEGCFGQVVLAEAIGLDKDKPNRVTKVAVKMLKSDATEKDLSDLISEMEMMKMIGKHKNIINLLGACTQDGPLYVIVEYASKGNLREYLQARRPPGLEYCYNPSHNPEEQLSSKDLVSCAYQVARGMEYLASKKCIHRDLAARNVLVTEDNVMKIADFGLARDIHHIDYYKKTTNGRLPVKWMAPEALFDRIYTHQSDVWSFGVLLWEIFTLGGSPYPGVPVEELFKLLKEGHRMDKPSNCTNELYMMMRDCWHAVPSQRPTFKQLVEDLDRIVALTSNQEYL

Consider `CCC(=O)N1CCC2(CC1)CC(n1cc(-c3cc(O[C@H](CO)c4ccc(F)cn4)c4c(C#N)cnn4c3)cn1)C2` [Example 28, (S)-4-(1-(5-fluoropyridin-2-yl)-2-hydroxyethoxy)-6-(1-(7-propionyl-7-azaspiro[3.5]nonan-2-yl)-1H-pyrazol-4-yl)pyrazolo[1,5-a]pyridine-3-carbonitrile], for which the Kd in assay [1], in assay [2], in assay [3], in assay [4], in [5] and in assay [6] was 0.1 to 100 nM each time. In addition, the Kd in assay [7] lay within 100 to 250 nM; in assay [8] it was 0.1 to 100 nM; in [9] it was 100 to 250 nM.
Consider `C=CC(=O)N1CCC2(CC1)CC(n1ncc(-c3cc(OC(CO)c4ccccn4)c4c(Cl)cnn4c3)c1C)C2` (single isomer, unassigned) [Example 6], for which the Kd in [2] is 100 to 250 nM; in assay [5] it was 0.1 to 100 nM; in assay [6], 0.1 to 100 nM; in assay [7], 250 to 1000 nM; in assay [8], 250 to 1000 nM; in assay [9], 250 to 1000 nM.
Regarding `C=CC(=O)N1CC(C(=O)N2CCC(n3nnc(-c4cc(O[C@@H](CO)c5ccccn5)c5c(C#N)cnn5c4)c3C)CC2)C1` [Example 17, (R)-6-(1-(1-(1-acryloylazetidine-3-carbonyl)piperidin-4-yl)-5-methyl-1H-1,2,3-triazol-4-yl)-4-(2-hydroxy-1-(pyridin-2-yl)ethoxy)pyrazolo[1,5-a]pyridine-3-carbonitrile], the Kd in [1] is not below 1000 nM; in [2], not below 1000 nM; in assay [3], 250 to 1000 nM; in [4], 250 to 1000 nM; in [5] it was 100 to 250 nM.
In the case of `C=CC(=O)N1CCC2(CC1)CC(n1ncc(-c3cc(O[C@@H](CO)c4ccc(F)cn4)c4c(C#N)cnn4c3)c1C)C2` [Example 10, (R)-6-(1-(7-acryloyl-7-azaspiro[3.5]nonan-2-yl)-5-methyl-1H-pyrazol-4-yl)-4-(1-(5-fluoropyridin-2-yl)-2-hydroxyethoxy)pyrazolo[1,5-a]pyridine-3-carbonitrile], the Kd is 250 to 1000 nM in assay [2]; 250 to 1000 nM in assay [3]; 250 to 1000 nM in assay [4]; 250 to 1000 nM in assay [5]; 250 to 1000 nM in assay [6]; not below 1000 nM in assay [7]. For the same molecule, the Kd in assay [8] and in [9] was not below 1000 nM each time.
As for `C#CC(=O)N1CC(OC)(C(=O)N2CCC(n3nnc(-c4cc(OC(CO)c5ccccn5)c5c(C#N)cnn5c4)c3C)CC2)C1` (centres unmarked) [Example 24, 4-(2-hydroxy-1-(pyridin-2-yl)ethoxy)-6-(1-(1-(3-methoxy-1-propioloylazetidine-3-carbonyl)piperidin-4-yl)-5-methyl-1H-1,2,3-triazol-4-yl)pyrazolo[1,5-a]pyridine-3-carbonitrile], the Kd in [1], in assay [2], in [3], in assay [4] and in [5] was 0.1 to 100 nM in each case.
Consider `CCC(=O)N1CCC2(CC1)CC(n1cc(-c3cc(O[C@@H](CO)c4ccc(F)cn4)c4c(C#N)cnn4c3)cn1)C2` [Example 26, (R)-4-(1-(5-fluoropyridin-2-yl)-2-hydroxyethoxy)-6-(1-(7-propionyl-7-azaspiro[3.5]nonan-2-yl)-1H-pyrazol-4-yl)pyrazolo[1,5-a]pyridine-3-carbonitrile], for which the Kd in assay [1] fell in the range of 250 to 1000 nM; in assay [2], 100 to 250 nM; in assay [3] it was 250 to 1000 nM; in assay [4] it was 100 to 250 nM; in [5], 100 to 250 nM.
For `C=CC(=O)N1CCC2(CC1)CC(n1nnc(-c3cc(O[C@H](C)c4ccccn4)c4c(Cl)cnn4c3)c1C)C2` [Example 4, (R)-1-(2-(4-(3-chloro-4-(1-(pyridin-2-yl)ethoxy)-pyrazolo[1,5-a]pyridin-6-yl)-5-methyl-1H-1,2,3-triazol-1-yl)-7-azaspiro[3.5]nonan-7-yl)prop-2-en-1-one], the Kd fell in the range of 0.1 to 100 nM in assay [2]; 0.1 to 100 nM in assay [5]; 0.1 to 100 nM in assay [6]; 250 to 1000 nM in assay [7]; 100 to 250 nM in assay [8]; 100 to 250 nM in assay [9].
In the case of `C=CC(=O)N1CCC2(CC1)CC(n1cc(-c3cc(O[C@@H](CO)c4ccc(F)cn4)c4c(C#N)cnn4c3)cn1)C2` [Example 25, (R)-6-(1-(7-acryloyl-7-azaspiro[3.5]nonan-2-yl)-1H-pyrazol-4-yl)-4-(1-(5-fluoropyridin-2-yl)-2-hydroxyethoxy)pyrazolo[1,5-a]pyridine-3-carbonitrile], the Kd in assay [1] was in the range of 250 to 1000 nM; in assay [2], 100 to 250 nM; in assay [3], 250 to 1000 nM; in [4], 100 to 250 nM; in assay [5], 100 to 250 nM.
On to `C=CC(=O)N1CC(F)(C(=O)N2CCC(n3nnc(-c4cc(O[C@@H](CO)c5ccccn5)c5c(C#N)cnn5c4)c3C)CC2)C1` (single isomer, unassigned) [Example 19], for which the Kd in assay [1] is not below 1000 nM; in assay [2], not below 1000 nM; in assay [3] it was 250 to 1000 nM; in [4] it was 250 to 1000 nM; in assay [5], 100 to 250 nM.
In the case of `C=CC(=O)N1CCC2(CC1)CC(n1ncc(-c3cc(O[C@@H](CO)c4ccccn4)c4c(Cl)cnn4c3)c1C)C2` [Example 5, (R)-1-(2-(4-(3-chloro-4-(2-hydroxy-1-(pyridin-2-yl)ethoxy)pyrazolo[1,5-a]pyridin-6-yl)-5-methyl-1H-pyrazol-1-yl)-7-azaspiro[3.5]nonan-7-yl)prop-2-en-1-one], the Kd in [2] is not below 1000 nM; in assay [5] it was 250 to 1000 nM; in assay [6], 250 to 1000 nM; in assay [7], not below 1000 nM; in [8], not below 1000 nM; in [9], not below 1000 nM.
Consider `CCC(=O)N1CC(C(=O)N2CCC(n3nnc(-c4cc(OC(CO)c5ccccn5)c5c(C#N)cnn5c4)c3C)CC2)C1` (centres unmarked) [Example 16, 4-(2-hydroxy-1-(pyridin-2-yl)ethoxy)-6-(5-methyl-1-(1-(1-propionylazetidine-3-carbonyl)piperidin-4-yl)-1H-1,2,3-triazol-4-yl)pyrazolo[1,5-a]pyridine-3-carbonitrile], for which the Kd in [1] was in the range of 0.1 to 100 nM; in [2], 100 to 250 nM; in [3], 0.1 to 100 nM; in [4] it was 0.1 to 100 nM; in assay [5] it was 0.1 to 100 nM.
